Here are results for 16 compounds from ChEMBL document CHEMBL1126676, “On the prediction of binding properties of drug molecules by comparative molecular field analysis” (1993).

System in one test: not listed separately
Description: Negative logarithm of minimal inhibitory concentration against human rhinovirus 14. The format is functional.
Regarding `Cc1cc(CCCCCOc2ccc(C3=N[C@@H](C)CO3)cc2)on1`, the “-ln (MIC)” value came to 14.3.

Turning to `Cc1cc(CCCCCOc2ccc(C3=NCCO3)cc2Cl)on1`, the “-ln (MIC)” value came to 12.9.

As to `Cc1cc(CCCCCCCOc2ccc(C3=N[C@@H](C)CO3)cc2)on1`, the “-ln (MIC)” value came out at 17.3.

In the case of `CC[C@H]1COC(c2ccc(OCCCCCCCc3cc(C)no3)cc2)=N1`, the “-ln (MIC)” value was found to be 17.7.

Regarding `Cc1cc(CCCCCCCOc2ccc(C3=N[C@H](C)CO3)cc2)on1`, the “-ln (MIC)” value was 14.7.

With `Cc1cc(CCCCCCCOc2ccc(C3=NCCO3)cc2)on1` [DISOXARIL], the “-ln (MIC)” value was found to be 14.3.

As for `Cc1cc(CCCCCCCOc2ccc(C3=N[C@@H](C)CO3)cc2Cl)on1`, the “-ln (MIC)” value was found to be 15.4.

For the compound `Cc1cc(CCCCCOc2ccc(C3=NCCO3)cc2)on1`, the “-ln (MIC)” value turned out to be 14.5.

A further test has as its target T1, Thermolysin (Bacillus thermoproteolyticus) (UniProt P00800).
T1 sequence (whole entry): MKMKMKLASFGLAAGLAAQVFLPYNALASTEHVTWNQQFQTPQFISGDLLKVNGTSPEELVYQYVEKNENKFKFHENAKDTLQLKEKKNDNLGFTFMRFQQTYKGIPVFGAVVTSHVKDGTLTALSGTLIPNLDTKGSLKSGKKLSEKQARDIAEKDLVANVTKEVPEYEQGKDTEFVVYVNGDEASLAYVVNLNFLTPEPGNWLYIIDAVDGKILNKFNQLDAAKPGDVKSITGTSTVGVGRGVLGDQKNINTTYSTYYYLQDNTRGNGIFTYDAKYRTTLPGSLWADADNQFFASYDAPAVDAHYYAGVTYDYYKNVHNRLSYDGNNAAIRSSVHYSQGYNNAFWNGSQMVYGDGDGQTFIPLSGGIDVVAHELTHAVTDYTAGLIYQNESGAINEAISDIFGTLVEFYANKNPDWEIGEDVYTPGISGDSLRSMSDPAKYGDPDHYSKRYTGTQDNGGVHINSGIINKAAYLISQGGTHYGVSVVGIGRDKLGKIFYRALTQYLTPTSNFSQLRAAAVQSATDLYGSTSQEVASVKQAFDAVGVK
The test is described as follows: Binding constant against thermolysin expressed as negative logarithm.
`CC(C)CC(NC(=O)C(CC(C)C)OP(=O)(O)CNC(=O)OCc1ccccc1)C(=O)O` (stereo unspecified) gave a -ln K of 11.6.

In turn, `CC(C)CC(OP(=O)(O)CNC(=O)OCc1ccccc1)C(=O)NC(Cc1ccccc1)C(=O)O` (stereo unspecified) showed a -ln K of 9.85.

Compound `CC(C)CC(CP(=O)(O)CNC(=O)OCc1ccccc1)C(=O)NC(C)C(=O)O` (stereo unspecified) returned a -ln K of 17.8.

For the compound `CC(C)CC(OP(=O)(O)CNC(=O)OCc1ccccc1)C(=O)NC(C)C(=O)O` (stereo unspecified), the -ln K was determined as 11.2.

Consider `CC(C)CC(OP(=O)(O)CNC(=O)OCc1ccccc1)C(=O)NCC(=O)O` (stereo unspecified), for which the -ln K stood at 8.38.

Regarding `CC(C)CC(CP(=O)(O)CNC(=O)OCc1ccccc1)C(=O)NCC(=O)O` (stereo unspecified), the -ln K was found to be 15.

Turning to `CC(NC(=O)C(Cc1ccccc1)C(=O)NO)C(=O)NCCO` (stereo unspecified), the -ln K is 14.7.

As for `CC(C)CC(N)C(=O)NO` (stereo unspecified), the -ln K amounted to 8.57.
